Results reported in PMC6397219, “Rapid one-step ^18F-radiolabeling of biomolecules in aqueous media by organophosphine fluoride acceptors” (Nature Communications, 2019).
Read-outs that look alike come from different tables or passages of the source.

What was measured:
[1] = test system: U87MG gliomablastoma; format: in vivo, mouse; details: for Tumor-SUVbw: unblocked, mean n=3
Procedure: (§1) 37 °C in a humidified atmosphere containing 5% CO 2 in Dulbecco’s Modified Eagle Medium (DMEM, high glucose) supplemented with 10% fetal bovine serum. Each male BALB/ c nude mouse wa s injected subcutane ously in the right foreleg with about 2 × 10^6 U87MG cells. At 4-5 week after inoculation, when the tumors reached about 0.5 cm in diameter, the mice were used for PET/CT imaging studies.
(§2) MicroPET/CT imaging with 18F-DBP OF-c(RGDyk)
Glioblastoma tumor mice were employed in microPET/CT imaging (n = 3) with 18F-DBPOF-c(RGDyk). Anesthetization was con ducted with 2.5% isoflurane during preparation and 1.5% during scans. 10 min dynamic microPET-CT scans were acquired by an Inveon microPET/CT (Siemens, Germany) 20 min post i.v. injection of 18F-DBPOF-c(RGDyk) (100 µL, 100 µCi). Reconstruction of PET images was performed with 3D OPMAP algorithm. […]
39~2. 51 times higher than blocked mice . The tumor was clearly observable whereas blocked mice had much less tumor uptake as indicated in Supplementary Figure 13. […]

[2] = Log D of 18F-DBPOF-c(RGDyk), 1-octanol/PBS; format: physicochemical; details: shake-flask, pre-saturated 1-octanol/PBS pH 7.4; 2.0 mL each; four tubes; shaken 10 min, centrifuged 5 min; γ counter, decay-corrected
Procedure: = 7.4) system to estimate the hydrophobicity changes between c(RGDyk) and 18F-DBP OF-c(RGDyk) that may influence biological function of c(RGDyk).
1-Octanol (2.0 mL) and phosphate buffer (2.0 mL) were pipetted into four 12 mL test tubes containing […] of radiotracer. The test tubes were stoppered, mechanic ally shaken for 10 min, and centrifuged (5 min). From each tube, approximately 0.5 mL of buffer was transferred into a pre -weighed test tube for counting. The remaining buffer was discarded and approximately 0.5 mL of octanol phase was also transferred int o a separate pre-weighed test tube. The amount of radioactivity in each tube was measured by a γ counter and corrected for decay. Accurate volumes of each counted phase were determined by weight differences and known densities. The partition coefficient was calculated using Supplementary Equation 1:
Log D = Counts/m L in buffer = -0.59 ± 0.09 1 […]
Photosensitizers were added at concentrations 0, 0.01, 0.05, 0.1, 0.5, 1 and 5 mM. The cell cytotoxic effect on the U87MG cells were determined using the CCK8 assay.
After 12 h and 24 h of incubation after the treatment we added 10 µL of CCK8 and incubated the cells for another 1 h at 37 °C and in 5% CO2. The measurement of absorbance was carried out on a 96-well microplate reader Synergy HT at 450 nm. […]

[3] = test system: U87MG gliomablastoma; format: in vivo, mouse; details: 60 min dynamic images; n = 3
Procedure: as §1, §2
Glioblastoma tumor mice were employed in microPET/CT imaging (n = 3) with 18F-DBPOF-c(RGDyk). Anesthetization was con ducted with 2.5% isoflurane during preparation and 1.5% during scans. 10 min dynamic microPET-CT scans were acquired by an Inveon microPET/CT (Siemens, Germany) 20 min post i.v. injection of 18F-DBPOF-c(RGDyk) (100 µL, 100 µCi). Reconstruction of PET images was performed with 3D OPMAP algorithm.
In order to study the specific tumor uptake, mice were pre-blocked by injection of 10 µmol DBPOF-c(RGDyk) 30 min prior to injection of 18F-DBPOF-c(RGDyk) as the control group. Then 60 min dynamic images were acquired to provide a control group […]
while the average tumor uptake SUV in the blocked mice was only 0.32~1.12. The tumor uptake of unblocked mice is 1. 39~2. 51 times higher than blocked mice . The tumor was clearly observable whereas blocked mice had much less tumor uptake as indicated in Supplementary Figure 13. […]

With “^18F-DBPOF-c(RGDyk) (head to tail) [18F-labeled peptide ligand, targets the integrin αvβ3 receptor of the U87MG cell]” the Tumor-SUVbw ([1]; 21 min) was 0.5941, the Tumor-SUVbw ([1]; 22 min) was 0.4485 and the Tumor-SUVbw ([1]; 23 min) was 0.7452. The Tumor-SUVbw ([1]; 24 min) was 0.761, the Tumor-SUVbw ([1]; 25 min) was 0.4755 and the Tumor-SUVbw ([1]; 26 min) was 0.5271. The Tumor-SUVbw ([1]; 27 min) was 0.4212, the Tumor-SUVbw ([1]; 28 min) was 0.5137 and the Tumor-SUVbw ([1]; 29 min) was 0.5036. The Tumor-SUVbw ([1]; 30 min) was 0.6269, the “uptake, standardized uptake value (SUV) in U87MG gliomablastoma” value ([1]; microPET/CT, 100 µCi i.v., dynamic scan from 20 min post injection) was 0.76 and the “target to non-target ratio” value ([1]; microPET/CT, U87MG gliomablastoma) was 2.4. The “Log D” value [2] was -0.59 ± 0.09 and the “average tumor uptake SUV in the blocked mice” value [3] was 0.32~1.12.
